Assay results: the supplement of paper PMC10307832

Compound: COc1ccc(-c2ccc3c(N4CCOC[C@@H]4C)nc(N4CCOC[C@@H]4C)nc3n2)cc1CO [AZD8055] + CC(=O)Nc1cccc(-n2c(=O)n(C3CC3)c(=O)c3c(Nc4ccc(I)cc4F)n(C)c(=O)c(C)c32)c1 [Trametinib] (partner 0.02 µM)
Experiment: relative viability (nuclei count vs DMSO), 5 days (fraction); higher = more cells survive
Procedure, shortened: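 Lung cancer cell lines in 1536-well plates were dosed by pin tool the day after seeding, either with one drug alone or with a fixed anchor-drug dose plus five library-drug doses (not always all listed) in √10 steps. After 5 days, cells were fixed and their nuclei stained in one step (final 0.05% Triton X-100, 1% formaldehyde, 1 ug/ml Hoechst), then counted on 4× images. Relative viability is the nuclei count in treated wells divided by that in vehicle wells. Values are medians of duplicate plates.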

| Cell Line | relative viability (first compound 0.01 µM) | relative viability (first compound 0.03162 µM) | relative viability (first compound 0.1 µM) | relative viability (first compound 0.3162 µM) | relative viability (first compound 1 µM) |
| --- | --- | --- | --- | --- | --- |
| 201T | 0.7 | 0.689 | 0.629 | 0.519 | 0.492 |
| A-427 | 0.746 | 0.577 | 0.488 | 0.351 | 0.334 |
| BEN | 0.87 | 0.626 | 0.569 | 0.467 | 0.463 |
| CAL-12T | 0.33 | 0.308 | 0.227 | 0.186 | 0.196 |
| COR-L23 | 0.512 | 0.528 | 0.334 | 0.127 | 0.157 |
| COR-L 105 | 0.416 | 0.412 | 0.44 | 0.404 | 0.416 |
| ChaGo-K-1 | 1.03 | 0.884 | 0.858 | 0.66 | 0.628 |
| EKVX | 0.339 | 0.389 | 0.296 | 0.247 | 0.227 |
| EMC-BAC-2 | 0.87 | 0.818 | 0.733 | 0.363 | 0.434 |
| EPLC-272H | 0.278 | 0.257 | 0.227 | 0.189 | 0.131 |
| H3255 | 0.687 | 0.588 | 0.455 | 0.306 | 0.322 |
| HARA |  | 0.671 | 0.497 | 0.285 | 0.223 |
| HCC-15 | 0.373 | 0.337 | 0.271 | 0.167 | 0.186 |
| HCC-44 | 0.994 | 1.16 | 0.907 | 0.802 | 0.731 |
| HCC-78 | 0.819 | 0.596 | 0.597 | 0.409 | 0.349 |
| HCC-366 | 0.35 | 0.217 | 0.166 | 0.0931 | 0.0678 |
| HCC-827 | 0.499 | 0.445 | 0.364 | 0.264 | 0.258 |
| HOP-62 | 0.423 | 0.338 | 0.27 | 0.195 | 0.194 |
| LC-2-ad | 0.989 | 0.917 | 0.828 | 0.907 | 0.715 |
| LCLC-97TM1 | 0.194 | 0.164 | 0.124 | 0.138 | 0.123 |
| LCLC-103H | 0.628 | 0.636 | 0.469 | 0.456 | 0.425 |
| LK-2 | 0.68 | 0.575 | 0.509 | 0.238 | 0.199 |
| LOU-NH91 | 0.765 | 0.74 | 0.64 | 0.564 | 0.587 |
| LU99A | 0.403 | 0.337 | 0.308 | 0.203 | 0.191 |

| Cell Line | relative viability (first compound 0.01 µM) | relative viability (first compound 0.03162 µM) | relative viability (first compound 0.1 µM) | relative viability (first compound 0.3162 µM) | relative viability (first compound 1 µM) |
| --- | --- | --- | --- | --- | --- |
| LXF-289 | 0.75 | 0.606 | 0.627 | 0.392 | 0.333 |
| NCI-H23 | 0.277 | 0.314 | 0.33 | 0.227 | 0.22 |
| NCI-H322M | 0.522 | 0.467 | 0.486 | 0.481 | 0.398 |
| NCI-H358 | 0.144 | 0.144 | 0.116 | 0.106 | 0.116 |
| NCI-H441 | 0.432 | 0.452 | 0.282 | 0.229 | 0.201 |
| NCI-H460 | 0.144 | 0.129 | 0.0855 | 0.0696 | 0.0537 |
| NCI-H520 | 0.581 | 0.246 | 0.267 | 0.109 | 0.137 |
| NCI-H596 | 0.704 | 0.676 | 0.577 | 0.411 | 0.404 |
| NCI-H647 | 0.538 | 0.345 | 0.322 | 0.136 | 0.127 |
| NCI-H650 | 1.13 | 1.09 | 0.888 | 0.469 | 0.353 |
| NCI-H661 | 0.518 | 0.426 | 0.451 | 0.31 | 0.325 |
| NCI-H727 | 0.352 | 0.399 | 0.368 | 0.37 | 0.458 |
| NCI-H838 | 0.499 | 0.335 | 0.279 | 0.19 | 0.201 |
| NCI-H1355 | 0.379 | 0.321 | 0.29 | 0.211 | 0.211 |
| NCI-H1395 | 0.977 | 0.793 | 0.712 | 0.514 | 0.544 |
| NCI-H1437 | 0.524 | 0.527 | 0.381 | 0.247 | 0.207 |
| NCI-H1648 | 0.396 | 0.446 | 0.342 | 0.316 | 0.209 |
| NCI-H1650 | 0.724 | 0.544 | 0.502 | 0.394 | 0.261 |
| NCI-H1651 | 0.809 | 0.715 | 0.735 | 0.582 | 0.462 |
| NCI-H1666 | 0.887 | 0.877 | 0.877 | 0.797 | 0.793 |
| NCI-H1734 | 0.747 | 0.559 | 0.531 | 0.312 | 0.242 |
| NCI-H1755 | 0.729 | 0.673 | 0.615 | 0.404 | 0.385 |
| NCI-H1792 | 0.511 | 0.273 | 0.227 | 0.0933 | 0.0673 |
| NCI-H1793 | 0.449 | 0.274 | 0.279 | 0.183 | 0.22 |

| Cell Line | relative viability (first compound 0.01 µM) | relative viability (first compound 0.03162 µM) | relative viability (first compound 0.1 µM) | relative viability (first compound 0.3162 µM) | relative viability (first compound 1 µM) |
| --- | --- | --- | --- | --- | --- |
| NCI-H1915 | 0.286 | 0.254 | 0.259 | 0.174 | 0.146 |
| NCI-H1944 | 0.411 | 0.378 | 0.292 | 0.228 | 0.191 |
| NCI-H1975 | 0.417 | 0.313 | 0.193 | 0.192 | 0.18 |
| NCI-H1993 | 0.493 | 0.443 | 0.517 | 0.449 | 0.413 |
| NCI-H2009 | 0.249 | 0.248 | 0.205 | 0.14 | 0.141 |
| NCI-H2023 | 0.454 | 0.43 | 0.187 | 0.152 | 0.122 |
| NCI-H2085 | 0.535 | 0.326 | 0.282 | 0.246 | 0.295 |
| NCI-H2087 | 0.248 | 0.166 | 0.169 | 0.153 | 0.116 |
| NCI-H2126 | 0.544 | 0.469 | 0.424 | 0.294 | 0.359 |
| NCI-H2170 | 0.957 | 0.864 | 0.614 | 0.222 | 0.159 |
| NCI-H2228 | 0.507 | 0.314 | 0.211 | 0.159 | 0.199 |
| NCI-H2342 | 0.894 | 0.731 | 0.598 | 0.552 | 0.525 |
| NCI-H2347 | 0.282 | 0.299 | 0.277 | 0.233 | 0.233 |
| NCI-H2405 | 0.555 | 0.494 | 0.43 | 0.282 | 0.27 |
| NCI-H3122 | 0.227 | 0.195 | 0.175 | 0.119 | 0.0905 |
| PC-3 [JPC-3] | 0.749 | 0.757 | 0.565 | 0.462 | 0.445 |
| PC-14 | 0.743 | 0.715 | 0.179 | 0.108 | 0.138 |
| RERF-LC-KJ | 0.871 | 0.816 | 0.649 | 0.378 | 0.38 |
| SK-LU-1 | 0.579 | 0.447 | 0.358 | 0.284 | 0.3 |
| SK-MES-1 | 0.462 | 0.543 | 0.354 | 0.313 | 0.303 |
| SW 1573 | 0.559 | 0.518 | 0.379 | 0.193 | 0.15 |
| UMC-11 | 0.77 | 0.489 | 0.453 | 0.319 | 0.253 |
